Laboratory results reported in patent EP4682145A1, “BENZOHETEROCYCLIC COMPOUND, AND PREPARATION METHOD THEREFOR AND USE THEREOF” (Cascade Pharmaceuticals, Inc., priority 2023, dated 2024).

Molecular target: T1, human FFAR1 (GPR40) (Homo sapiens, UniProt O14842)
T1 construct: Flag; expressed in transfected cells; host or cells: HEK293T
Experiment: NFAT-RE-based reporter gene activity assay (Dual-Glo luciferase) for GPR40 agonistic activity in co-transfected HEK293T cells
Format: cell-based
Conditions: 4-hour treatment; for Efficacy (%): class symbols
Procedure, shortened: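 HEK293T cells co-transfected with human FFAR1, NFAT-RE firefly luciferase and TK-Renilla plasmids; 24 h later treated 4 h with 10 half-log compound dilutions from 1 µM. Firefly/Renilla ratio normalised to DMSO; EC50 from four-parameter fit.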

T1 sequence (O14842 whole entry): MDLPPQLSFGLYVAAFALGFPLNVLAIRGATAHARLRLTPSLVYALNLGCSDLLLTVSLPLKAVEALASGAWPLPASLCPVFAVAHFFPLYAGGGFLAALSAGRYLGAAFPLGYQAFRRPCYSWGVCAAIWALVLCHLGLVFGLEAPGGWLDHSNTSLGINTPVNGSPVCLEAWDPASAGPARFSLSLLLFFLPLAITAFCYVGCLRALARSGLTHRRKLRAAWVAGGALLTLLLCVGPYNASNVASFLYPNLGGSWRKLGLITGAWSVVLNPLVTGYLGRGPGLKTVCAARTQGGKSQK

Compound	EC50 [nM]	Efficacy (%)
COc1cccc(N2CCC(c3oc4cc([C@@H](CC(=O)O)C5CC5)ccc4c3-c3nnc(C(C)(C)C)o3)CC2)c1 [Compound 125]	10 to 100	†† (150 ≥ Efficacy (%) > 100)
COc1cccc(N2CCC(c3oc4cc(C(CC(=O)O)C5CC5)ccc4c3-c3cc(C(C)(C)C)no3)CC2)c1 (stereo not drawn) [Compound 115]	≤ 10	†† (150 ≥ Efficacy (%) > 100)
COc1cccc(N2CCC(c3oc4cc([C@@H](CC(=O)O)C5CC5)ccc4c3-c3cnc(C(C)C)s3)CC2)c1 [Compound 102]	10 to 100	†† (150 ≥ Efficacy (%) > 100)
COc1cccc(N2CCC(c3oc4cc(C(CC(=O)O)C5CC5)ccc4c3-c3nnc(-c4ccccc4)o3)CC2)c1 (stereo not drawn) [Compound 133]	100 to 500	† (100 ≥ Efficacy (%) > 50)
COc1ccc(F)c(N2CCC(c3oc4cc(C(CC(=O)O)C5CC5)ccc4c3C(=O)NC(C)(C)C)CC2)c1 (stereo not drawn) [Compound 305]	100 to 500	†† (150 ≥ Efficacy (%) > 100)
COc1cccc(N2CCC(c3oc4cc(C(CC(=O)O)C5CC5)ccc4c3C(=O)Nc3cccc(C#N)c3)CC2)c1 (stereo not drawn) [Compound 249]	100 to 500	†† (150 ≥ Efficacy (%) > 100)
COc1cccc(N2CCC(c3oc4cc([C@@H](CC(=O)O)C5CC5)ccc4c3C(=O)Nc3cc(C(F)(F)F)ccc3Cl)CC2)c1 [Compound 275]	10 to 100	††† (Efficacy (%) > 150)
COc1ccc(F)c(N2CCC(c3oc4cc(C(CC(=O)O)C5CC5)ccc4c3-c3ccc(SC)cc3)CC2)c1 (stereo not drawn) [Compound 181]	100 to 500	†† (150 ≥ Efficacy (%) > 100)
Cc1ccc(Cl)c(NC(=O)c2c(C3CCN(c4ccc5c(c4)OCO5)CC3)oc3cc([C@@H](CC(=O)O)C4CC4)ccc23)c1 [Compound 332]	≤ 10	†† (150 ≥ Efficacy (%) > 100)
COc1ccc(F)c(N2CCC(c3oc4cc(C(CC(=O)O)C5CC5)ccc4c3-c3ccc(S(=O)(=O)C(C)C)cc3)CC2)c1 (stereo not drawn) [Compound 183]	100 to 500	†† (150 ≥ Efficacy (%) > 100)
COc1cccc(N2CCC(c3oc4cc(C(CC(=O)O)C5CC5)ccc4c3-c3ccc(C(C)(C)C)cc3)CC2)c1 (stereo not drawn) [Compound 13]	100 to 500	††† (Efficacy (%) > 150)
COc1cccc(N2CCC(c3oc4cc([C@@H](CC(=O)O)C5CC5)ccc4c3C(C)OCC(C)(C)C)CC2)c1 (stereo partly drawn) [Compound 411]	10 to 100	†† (150 ≥ Efficacy (%) > 100)
Cc1cccc(N2CCC(c3oc4cc(C(CC(=O)O)C5CC5)ccc4c3-c3cccc(C(C)(C)C)c3)CC2)c1 (stereo not drawn) [Compound 4]	100 to 500	† (100 ≥ Efficacy (%) > 50)
CCC(C)COC(C)c1c(C2CCN(c3cccc(OC)c3)CC2)oc2cc([C@@H](CC(=O)O)C3CC3)ccc12 (stereo partly drawn) [Compound 413]	100 to 500	††† (Efficacy (%) > 150)
COc1ccc(F)c(N2CCC(c3oc4cc(C(CC(=O)O)C5CC5)ccc4c3-c3cccc(C4CC4)c3)CC2)c1 (stereo not drawn) [Compound 164]	100 to 500	†† (150 ≥ Efficacy (%) > 100)
COc1cccc(-c2c(C3CCN(c4cccc(OC)c4)CC3)oc3cc(C(CC(=O)O)C4CC4)ccc23)c1 (stereo not drawn) [Compound 29]	100 to 500	†† (150 ≥ Efficacy (%) > 100)
COc1cccc(N2CCC(c3oc4cc([C@@H](CC(=O)O)C5CC5)ccc4c3C(=O)Nc3cc(NC(C)=O)ccc3Cl)CC2)c1 [Compound 286]	100 to 500	†† (150 ≥ Efficacy (%) > 100)
COc1cccc(N2CCC(c3oc4cc([C@@H](CC(=O)O)C5CC5)ccc4c3C(=O)Nc3cc(N4CCOCC4)ccc3Cl)CC2)c1 [Compound 285]	≤ 10	†† (150 ≥ Efficacy (%) > 100)
COc1ccc(F)c(N2CCC(c3oc4cc(C(CC(=O)O)C5CC5)ccc4c3C(=O)NCC3CC3)CC2)c1 (stereo not drawn) [Compound 309]	100 to 500	†† (150 ≥ Efficacy (%) > 100)
COc1cccc(N2CCC(c3oc4cc(C(CC(=O)O)C5CC5)ccc4c3C(=O)N3CCCC3)CC2)c1 (stereo not drawn) [Compound 358]	100 to 500	† (100 ≥ Efficacy (%) > 50)
CNC(=O)C(C)(C)n1cc(-c2c(C3CCN(c4cccc(OC)c4)CC3)oc3cc(C(CC(=O)O)C4CC4)ccc23)cn1 (stereo not drawn) [Compound 52]	100 to 500	† (100 ≥ Efficacy (%) > 50)
COc1ccc(F)c(N2CCC(c3oc4cc(C(CC(=O)O)C5CC5)ccc4c3-c3ccc(N(C)C(C)C)cc3)CC2)c1 (stereo not drawn) [Compound 185]	100 to 500	†† (150 ≥ Efficacy (%) > 100)
COc1cccc(N2CCC(c3oc4cc([C@@H](CC(=O)O)C5CC5)ccc4c3CN(CC(C)(C)C)C(C)=O)CC2)c1 [Compound 442]	100 to 500	†† (150 ≥ Efficacy (%) > 100)
COc1cccc(N2CCC(c3oc4cc([C@@H](CC(=O)O)C5CC5)ccc4c3-c3cnn(C(C)(C)C)c3)CC2)c1F [Compound 87]	10 to 100	†† (150 ≥ Efficacy (%) > 100)

Compound	EC50 [nM]	Efficacy (%)
CC(C)(C)n1cc(-c2c(C3CCN(c4cccc(F)c4)CC3)oc3cc(C(CC(=O)O)C4CC4)ccc23)cn1 (stereo not drawn) [Compound 41]	100 to 500	†† (150 ≥ Efficacy (%) > 100)
COc1cccc(N2CCC(c3oc4cc(C(CC(=O)O)C5CC5)ccc4c3-c3cccc(C(C)(C)C)c3)CC2)c1 (stereo not drawn) [Compound 11]	10 to 100	††† (Efficacy (%) > 150)
COc1ccc(F)c(N2CCC(c3cc4ccc(C(CC(=O)O)C5CC5)cc4o3)CC2)c1 (stereo not drawn) [Comparative Example 1, reference compound]	> 1000	NA (NA indicates no activity)
CCCCOC(C)c1c(C2CCN(c3cccc(OC)c3)CC2)oc2cc([C@@H](CC(=O)O)C3CC3)ccc12 (stereo partly drawn) [Compound 410]	100 to 500	††† (Efficacy (%) > 150)
COc1ccc(F)c(N2CCC(c3oc4cc([C@H](CC(=O)O)C5CC5)ccc4c3-c3cccc(C(C)(C)C)c3)CC2)c1 [Compound 167]	100 to 500	†† (150 ≥ Efficacy (%) > 100)
COc1ccc(F)c(N2CCC(c3oc4cc(C(CC(=O)O)C5CC5)ccc4c3-c3ccc(C(=O)N4CCCC4)cc3)CC2)c1 (stereo not drawn) [Compound 200]	100 to 500	†† (150 ≥ Efficacy (%) > 100)
COc1cccc(N2CCC(c3oc4cc(C(CC(=O)O)C5CC5)ccc4c3C(=O)Nc3ccccc3C#N)CC2)c1 (stereo not drawn) [Compound 236]	10 to 100	††† (Efficacy (%) > 150)
COc1ccc(F)c(N2CCC(c3oc4cc(C(CC(=O)O)C5CC5)ccc4c3C(=O)NCC(C)(C)C)CC2)c1 (stereo not drawn) [Compound 306]	100 to 500	†† (150 ≥ Efficacy (%) > 100)
COc1cccc(N2CCC(c3oc4cc([C@@H](CC(=O)O)C5CC5)ccc4c3C(=O)Nc3cc(C)ccc3Br)CC2)c1 [Compound 273]	≤ 10	†† (150 ≥ Efficacy (%) > 100)
COc1ccc(F)c(N2CCC(c3oc4cc(C(CC(=O)O)C5CC5)ccc4c3C(=O)Nc3cccc(C)c3)CC2)c1 (stereo not drawn) [Compound 320]	10 to 100	†† (150 ≥ Efficacy (%) > 100)
COc1ccc(F)c(N2CCC(c3oc4cc([C@@H](CC(=O)O)C5CC5)ccc4c3-c3cccc(C)c3)CC2)c1 [Compound 158]	100 to 500	†† (150 ≥ Efficacy (%) > 100)
COc1cccc(N2CCC(c3oc4cc(C(CC(=O)O)C5CC5)ccc4c3C(=O)NC3C4CC5CC(C4)CC3C5)CC2)c1 (stereo not drawn) [Compound 352]	10 to 100	†† (150 ≥ Efficacy (%) > 100)
CC(C)(C)n1cc(-c2c(C3CCN(c4ccc5c(c4)OCO5)CC3)oc3cc([C@@H](CC(=O)O)C4CC4)ccc23)cn1 [Compound 97]	10 to 100	†† (150 ≥ Efficacy (%) > 100)
COc1cccc(N2CCC(c3oc4cc([C@@H](CC(=O)O)C5CC5)ccc4c3C(=O)Nc3ccccc3Cl)CC2)c1F [Compound 322]	≤ 10	†† (150 ≥ Efficacy (%) > 100)
COc1ccc(F)c(N2CCC(c3oc4cc([C@@H](CC(=O)O)C5CC5)ccc4c3-c3cccc(OC(F)(F)F)c3)CC2)c1 [Compound 173]	100 to 500	††† (Efficacy (%) > 150)
COc1ccc(F)c(N2CCC(c3oc4cc(C(CC(=O)O)C5CC5)ccc4c3CC3=CCCC3)CC2)c1 (stereo not drawn) [Compound 383]	100 to 500	††† (Efficacy (%) > 150)
COc1cccc(N2CCC(c3oc4cc(C(CC(=O)O)C5CC5)ccc4c3C(=O)N3CCCC3C)CC2)c1 (stereo not drawn) [Compound 359]	100 to 500	† (100 ≥ Efficacy (%) > 50)
COc1cccc(N2CCC(c3oc4cc(C(CC(=O)O)C5CC5)ccc4c3C(=O)Nc3cccc(F)c3F)CC2)c1 (stereo not drawn) [Compound 254]	100 to 500	††† (Efficacy (%) > 150)
COc1cccc(N2CCC(c3oc4cc([C@@H](CC(=O)O)C5CC5)ccc4c3C(C)OCC3CCCC3)CC2)c1 (stereo partly drawn) [Compound 419]	10 to 100	††††
COc1cccc(N2CCC(c3oc4cc([C@@H](CC(=O)O)C5CC5)ccc4c3-c3csc(OC)n3)CC2)c1 [Compound 105]	10 to 100	†† (150 ≥ Efficacy (%) > 100)
CCCCC(C)c1c(C2CCN(c3cccc(OC)c3)CC2)oc2cc([C@@H](CC(=O)O)C3CC3)ccc12 (stereo partly drawn) [Compound 384]	100 to 500	†† (150 ≥ Efficacy (%) > 100)
COc1cccc(N2CCC(c3oc4cc(C(CCO)C5CC5)ccc4c3-c3cnn(C(C)(C)C)c3)CC2)c1 (stereo not drawn) [Compound 56]	100 to 500	† (100 ≥ Efficacy (%) > 50)
COc1cccc(N2CCC(c3oc4cc(C(CC(=O)O)C5CC5)ccc4c3C(=O)Nc3c(F)cccc3C(F)(F)F)CC2)c1 (stereo not drawn) [Compound 263]	100 to 500	†† (150 ≥ Efficacy (%) > 100)
COc1cccc(N2CCC(c3oc4cc(C(CC(=O)O)C5CC5)ccc4c3-c3csc(C(C)C)n3)CC2)c1 (stereo not drawn) [Compound 106]	10 to 100	†† (150 ≥ Efficacy (%) > 100)
